Where “and” joins values, the source holds several entries; their conditions need not be identical. Equal values may be shown once. Entries after “also recorded” stand apart in the source; their conditions may differ. No end group written: not given here.

In data set [1] the test system is PepF. Description: Screening of sXIP variants for susceptibility to PepF degradation. Type of data set: in vitro ADME, Streptococcus salivarius HSISS4. The settings on record: for percentage of signal loss: peptide 500 nM pre-incubated with PepF 7 nM, 4 h, 37°C vs without PepF, PcomS-luxAB ΔcomS reporter luminescence, mean of technical triplicates; for peptidase resistance in the screening: PepF 7 nM, peptide 500 nM, signal loss compared with native XIP. How it is done: We next investigated which residues of the pheromone are crucial for peptidase cleavage and screened 20 peptides variants with single XIP mutations. We incubated those peptides with PepF at a mid-range concentration previously identified for the native XIP ([PepF] of 7 nM and [XIP] of 500 nM). Next, we added the peptides incubated or not with PepF to the PcomS-luxAB ΔcomS reporter strain and analyzed the percentage of signal loss upon incubation with the peptidase. […] To quantify more accurately the PepF resistance of variants at those two positions, we used the same degradation assay as used for native sXIP and measured the EC50 for each variant (Figs 5A and S5). Since F4W, F4Y and A5I variants were the most resistant, we combined mutations at positions 4 and 5 in a single peptide to increase its robustness to degradation. […] Because our degradation assay is based on an indirect method of quantification through the use of a reporter strain, bias could be introduced by the effect of the mutations on the ComR-pheromone affinity. To rule out this possibility, we measured the ComR-binding properties of the peptides by electrophoretic mobility shift assays (S6 Fig). Since no correlation between peptide-binding to ComR and pheromone sensitivity to degradation could be drawn, we concluded that the luciferase degradation assay reflects the peptide susceptibility to PepF.
Supplementary file pgen.1010198.s004.tif: S4 Fig Screening of sXIP variants for competence activation and susceptibility to PepF degradation. Specific maximum luciferase activity (RLU/OD600) upon peptide addition is plotted against the loss of signal with the peptide pre-incubated with PepF (plotted as a percentage of signal loss). A total number of 20 sXIP variants of the native S. salivarius sXIP (LPYFAGCL) were tested. The different peptides (500 nM) were incubated during 4 h at 37°C with or without PepF (7 nM). The reaction mixture was then 10-fold diluted by addition to an exponential growing culture (CDM) of the reporter strain defective for the genetically-encoded pheromone XIP (PcomS-luxAB ΔcomS). Dots represents mean of technical triplicates. […] Red/blue dots denote peptides discarded/selected for subsequent characterization due to their weak/strong induction of competence. (TIF) Click here for additional data file.

For data set [2], the system named is PepF. The data set is described as follows: recombinant PepF in reaction buffer (20 mM Tris HCl, pH 7.0). As to conditions: S. salivarius HSISS4, 37°C, up to 4 h.
For data set [3], the target named is PepF (Streptococcus salivarius K12, UniProt J7TQB7). Type of data set: in vitro ADME, Streptococcus salivarius HSISS4. As to conditions: PepF gradient, peptide 500 nM, 4 h, 37°C. How it is done:
(§1) Overnight precultures were diluted at a final OD600 of 0.05. A volume of 300 μL of culture samples was transferred in the wells of a sterile covered white microplate with a transparent bottom (Greiner, Alphen a/d Rijn, The Netherlands). These culture samples were supplemented with D-xylose or IPTG if stated or further incubated for 100 min at 37°C before supplementation with sXIP or other peptides variants. Growth (OD600) and luciferase (Lux) activity (expressed in relative light units, RLU) were monitored at 10 min intervals during 6 to 24 h in a Hidex Sense microplate reader (Hidex, Lemminkäisenkatu, Finland). Specific or maximum specific Lux activity were obtained by dividing Lux activity by the OD600 for each measurement and summing all the data obtained over time or selecting the maximum value, respectively. Biological or technical triplicates were then averaged. Statistical analyses of simple and multiple comparisons to the control mean were performed with t-test (unilateral distribution, heteroscedastic) and one-way ANOVA with Dunnett’s test, respectively. For both, standard deviations and P values were calculated.
For PepF purification, the PCR-amplified pepF gene from strain HSISS4 was cloned into the pBAD-covR-STN-ter vector [24]. […] Protein purity was analyzed by SDS-PAGE and concentration was measured using a Nanodrop apparatus (A280 method; ThermoFisher Scientific). […]

In data set [4] the test system is PepF. Description: Kinetics of peptide degradation by PepF. Type of data set: in vitro ADME, Streptococcus salivarius HSISS4. The settings on record: PepF 8 nM, peptide 500 nM, 6 h, 37°C. Here is the method: Fig 5 Degradation of PepF-resistant sXIP peptides. (A) PepF degradation efficiency for XIP (LPY[F/Y/W][A/M/I/V]GCL) variants. […] Bars denote standard deviations on the EC50 computation. (B) XIP and XIPF4WA5I kinetics of degradation by PepF. PepF (8 nM) and the peptides (500 nM) were incubated 6 hours at 37°C and sampled every hour for analysis. Reaction was stopped by adding 1 mM EDTA and further added to the PcomS-luxAB ΔcomS reporter strain as previously described. Dots show technical triplicates, the line connects mean values with error bars (standard deviation).
(§2) sXIP and derivatives were incubated at 500 nM with PepF at different concentrations ranging from 100 to 0.025 nM during 4 h at 37°C as described in the previous section. 30 μL of the mix was then added to 270 μL of exponential phase culture of a PcomS reporter strain defective for the pheromone (PcomS-luxAB ΔcomS) and maximum luciferase activity was computed as reported above. Maximum values obtained were normalized by the signal recorded for the peptide incubated without the peptidase and enzyme concentration affording half luminescence (EC50) was extrapolated using Graphpad Prism and the non-linear extrapolation equation: Signal=b+(t−b)/(1+IC50/[PepF]^HS) where t stands for top, b for bottom, and HS for Hill-Slope.

The test system of another data set is PepFSsa. Type of data set: in vitro ADME, Streptococcus salivarius HSISS4. As to conditions: from EC50 values. How it is done:
as §2
Supplementary file pgen.1010198.s009.tif: S9 Fig Conservation of PepF in salivarius streptococci and susceptibility of S. vestibularis sXIP to PepF degradation. (A) Alignment of PepF performed with CLC Main Workbench multiple alignment tool (http://www.clcbio.com/products/clc-main-workbench/). PepF from 4 representative strains (i.e. S. salivarius HSISS4, S. thermophilus LMD-9, S. thermophilus LMG18311 and S. vestibularis NTC12167) were used for the alignment. Red, orange, and yellow denote 100%, 75%, and 50% conservation, respectively. The conserved Zinc-binding motif HEXXH is underlined. […]

Data set [5] relates to PcomS-luxAB ΔcomS reporter strain. The data set is described as follows: Screening of sXIP variants for competence activation. As to conditions: peptide 500 nM incubated 4 h 37°C without PepF, 10-fold diluted into PcomS-luxAB ΔcomS culture (CDM); mean of technical triplicates. Type of data set: cell-based, Streptococcus salivarius. Here is the method: as §1
Supplementary file pgen.1010198.s004.tif: S4 Fig Screening of sXIP variants for competence activation and susceptibility to PepF degradation. […]

Chain of PepF (Streptococcus salivarius K12, UniProt J7TQB7) (J7TQB7 entry or part of it): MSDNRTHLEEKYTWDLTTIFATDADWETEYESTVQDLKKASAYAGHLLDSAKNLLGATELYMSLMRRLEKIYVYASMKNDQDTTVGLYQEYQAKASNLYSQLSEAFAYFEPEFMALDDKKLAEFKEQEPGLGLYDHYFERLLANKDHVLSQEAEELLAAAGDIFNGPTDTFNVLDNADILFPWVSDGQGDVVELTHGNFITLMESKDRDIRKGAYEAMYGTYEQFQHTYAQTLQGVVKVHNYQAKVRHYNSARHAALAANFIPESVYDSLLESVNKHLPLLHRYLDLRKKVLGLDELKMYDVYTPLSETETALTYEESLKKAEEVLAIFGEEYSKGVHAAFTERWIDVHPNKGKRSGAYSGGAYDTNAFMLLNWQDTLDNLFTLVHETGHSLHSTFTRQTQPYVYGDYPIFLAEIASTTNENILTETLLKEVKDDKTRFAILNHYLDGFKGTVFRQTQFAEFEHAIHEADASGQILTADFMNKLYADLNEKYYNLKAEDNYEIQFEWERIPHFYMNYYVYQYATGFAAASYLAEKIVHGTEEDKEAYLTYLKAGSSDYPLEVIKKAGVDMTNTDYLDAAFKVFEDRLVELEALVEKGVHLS

APYFAGCL [APYFAGCL]: the “percentage of signal loss” value in the data set with PepF [1] is 87.3461% and 90.7518%.
The same measure, in the same setting: next, APYFMGCL [APYFMGCL]: 99.0138%; ITILPYFAGCL [ITILPYFAGCL]: 99.5087%; LAYFAGCL [LAYFAGCL]: 40.0979%.
As to LPAFAGCL [LPAFAGCL], in the data set on PepF [1], the “percentage of signal loss” value amounted to 83.5452%.
The same measure, in the same setting: for LPWFAGCL [LPWFAGCL] the value was 97.3022%; for LPYAAGCL [LPYAAGCL], 77.0857%.
The same measure, in the same setting: next, LPYFAACL [LPYFAACL]: 99.6712%.
As for LPYFAGAL [LPYFAGAL], the “percentage of signal loss” value with PepF [1] is listed as 99.8977%.
On to LPYFAGCL, for which, in the data set with PepF [2], the cleaved bond result is listed as “F4-A5, major; also recorded: A5-G6, major”.
As for LPYFAGCL [sXIP, reference compound], in the data set with PepF [1], the “percentage of signal loss” value came to 99.5932%.
For LPYFAICL [LPYFAICL], in the data set with PepF [1], the “percentage of signal loss” value is listed as 1.804%.
Same read-out and setting: next, LPYFGGCL [LPYFGGCL]: 69.5765%.
As for LPYFIGCL [LPYFIGCL], in the data set on PepF [1], the “peptidase resistance in the screening” value is “higher peptidase resistance” and the “percentage of signal loss” value was 78.4996%.
In the case of LPYFMGCL [LPYFMGCL], in the data set on PepF [1], the “peptidase resistance in the screening” value is reported as “higher peptidase resistance” and the “percentage of signal loss” value worked out at 85.0947%.
Regarding LPYFMICL [LPYFMICL], in the data set on PepF [1], the “percentage of signal loss” value worked out at 10.0484%.
The same measure, in the same setting: for LPYFTGCL [LPYFTGCL] the value was 97.3896%; for LPYFVGCL [LPYFVGCL], 94.8201%.
On to LPYWAGCL [LPYWAGCL], for which, in the data set with PepF [1], the “peptidase resistance in the screening” value is reported as “higher peptidase resistance” and the “percentage of signal loss” value worked out at 68.1634%.
Regarding LPYWIGCL [LPYWIGCL], on PepF [3], the “proteolysis by PepF in vitro” value was “slower proteolysis”. In addition, in the data set on PepF [4], the “degradation kinetics compared to the WT pheromone” value was “reduced degradation kinetics”.
Consider LPYYAGCL [LPYYAGCL], for which, in the data set on PepF [1], the “peptidase resistance in the screening” value is listed as “higher peptidase resistance” and the “percentage of signal loss” value is listed as 89.6196%.
For LPYYIGCL [LPYYIGCL], at PepF [3], the “proteolysis by PepF in vitro” value was “slower proteolysis”.
As for VPFFMIYY [sXIPSve], the “PepF-mediated degradation, fold less efficient compared to XIPSsa/Sth” value in the data set on PepFSsa is listed as ~ 15 fold.
For the substance “_PYFAGCL [sXIP variant of the screening lacking the first residue]”, the Max specific luciferase in data set [5] amounted to 1453.53 RLU/OD600.
For the substance “_PYFMGCL [sXIP variant of the screening lacking the first residue]”, the “percentage of signal loss” value in the data set on PepF [1] worked out at 28.6586%. In addition, the Max specific luciferase in data set [5] is 2144.5 RLU/OD600.
